Measured values taken from US20230348421A1, “5-HT2A RECEPTOR INHIBITOR OR INVERSE AGONIST, PREPARATION METHOD THEREFOR, AND APPLICATION THEREOF” (GENEORA PHARMA (SHIJIAZHUANG) CO., LTD., priority 2020, published 2023).
Read-outs that look alike come from different tables or passages of the source.

Columns and labels:
hERG potassium channels = hERG potassium channels (Homo sapiens (Human), UniProt Q12809); assay: hERG inhibitory activity, whole-cell patch clamp in CHO-hERG cells
Procedure: • Name: Dimethyl sulfoxide (DMSO)
• Species & strains: CHO-hERG cell lines (Chinese hamster ovary cells stably expressing hERG channels) • Culture medium: 90% F12, 10% fetal bovine serum, 100 μg/mL G418 and 100 μg/mL hygromycin B • Culture conditions: 5% CO2, 37° C. incubator • Freezing conditions: Liquid nitrogen
Digestion was performed at room temperature for 3-5 min. The digestion solution was pipetted, and the cells were resuspended in extracellular fluid and transferred to an experimental dish for electrophysiological recording for later use.
On the day of the test, the compound was diluted with DMSO to an intermediate concentration. 10 μL of compound with the intermediate concentration was taken, transferred to 4990 μL of extracellular fluid, and subjected to 500-fold dilution to obtain a final concentration to be tested.
CHO (Chinese Hamster Ovary) cells stably expressing hERG potassium channels were taken, and hERG potassium channel currents were recorded at room temperature by means of a whole-cell patch-clamp technique. A glass microelectrode was formed by pulling a glass electrode blank (BF150-86-10, Sutter) with a glass microelectrode puller. The tip resistance was about 2-5 MΩ after perfusion of a pippette solution. The glass microelectrode could be connected to a patch clamp amplifier by inserting the glass microelectrode into an amplifier probe. Clamping voltages and data recording were controlled and recorded by a computer with pClamp 10 software, with a sampling frequency of 10 kHz and a filtering frequency of 2 kHz. After the whole-cell recording was obtained, the cells were clamped at −80 mV, and the step voltage evoking hERG potassium current (I hERG) was changed from −80 mV to +20 mV by giving a 2 s depolarization voltage and then repolarized to −50 mV for 1 s, and returned to −80 mV. Such voltage stimulation was given every 10 s, and the administration process was started after it was determined that the hERG potassium currents were stable (1 min). The compound at each test concentration was given at least 1 min, and at least 2 cells (n≥2) were tested for each concentration.
Data analysis was performed by means of pClamp 10 and GraphPad Prism 5.0 software.
The formula for calculating the degree of inhibition of different compound concentrations on hERG potassium currents (the hERG tail current peak value evoked at −50 mV) was:
Y=Bottom+(Top−Bottom)/(1+10^((LogIC50−X)*HillSlope))
wherein X is a Log value of a test concentration of a test sample, Y is the inhibition percentage at a corresponding concentration, and Bottom and Top are the minimum inhibition percentage and the maximum inhibition percentage, respectively.

5-HT2A receptor [1] = target: T1, 5-HT2A receptor (Homo sapiens (Human), UniProt P28223); assay: Test for 5-HT2A antagonistic activity (calcium ion antagonism, FLIPR, CHO-K1/5-HT2A cells); assay type: cell-based; conditions: 100 nM a-methyl-5-HT, Ca2+ signal
Procedure: • Cell lines: CHO-K1/5-HT2A (Chempartner) • Cell culture medium: DMEM/F12+10% FBS (purchased from GBICO) • Cell culture plate: 384-well Assay Plate (purchased from Corning) • Detection kit: FLIPR® Calcium 4 Assay Kit (purchased from Molecular Devices)
After that, centrifugation was performed to remove the culture medium in the cell culture plate. Dye was added, and the cells were incubated in a 37° C., 5% CO2 incubator for another 1 h. The cell culture plate was placed on the FLIPR. A compound to be tested was added, and the Ca^2+ signal was detected, wherein the compound to be tested was subjected to 3-fold gradient dilution with PBS to obtain 10 concentrations, with the highest concentration of 10 uM, and double replicate wells were set up. […] In order to determine the test stability, risperidone was used as a positive control. The data were processed with GraphPad Prism 7.0 to obtain a cell inhibition rate curve, and the IC50 was calculated.
Inhibition rate (%)=100%−[(signal value of the compound to be tested−signal value of the test solution)/(the maximum signal value−the signal value of the test solution)]×100%

5-HT2A receptor [2] = target: T1, 5-HT2A receptor; assay: Screening for 5-HT2A inverse agonistic activity (NIH3T3-5-HT2A R cells, Bright-Glo luciferase, 120 h); assay type: cell-based; conditions: NIH3T3-5HT2AR cells, cell inhibition rate
Procedure: • Cell lines: Adherent cells NIH3T3-5-HT2A R • Cell culture medium: DMEM+10% FBS (purchased from GBICO) • Cell culture plate: White-wall clear-bottom 96-well plate (purchased from Perkin Elmer) • Detection kit: Bright-Glo™ Luciferase (purchased from Promega) • Detection instrument: BioTek multifunctional microplate reader
NIH3T3-5HT2AR cells in the logarithmic growth phase were seeded into a white-wall clear-bottom 96-well plate at a density of 1000 cells per well, and cultured overnight in a 37° C., 5% CO2 incubator. […] On the sixth day, a Bright-Glo™ Luciferase reagent with a volume equal to that of cell sap was added to the cells, and the cells were incubated at room temperature in the dark for 20 min. […] The data was processed with GraphPad Prism 7.0 to obtain a cell inhibition rate curve, and the IC50 was calculated.
Cell inhibition rate (%)=[100−(Lum test drug−Lum culture solution)/(Lum cell control−Lum culture solution)×100]%

[3] = read-out: hERG inhibitory activity IC50, CHO-hERG cells, whole-cell patch clamp, tail current at -50 mV

T1 sequence (P28223 whole entry): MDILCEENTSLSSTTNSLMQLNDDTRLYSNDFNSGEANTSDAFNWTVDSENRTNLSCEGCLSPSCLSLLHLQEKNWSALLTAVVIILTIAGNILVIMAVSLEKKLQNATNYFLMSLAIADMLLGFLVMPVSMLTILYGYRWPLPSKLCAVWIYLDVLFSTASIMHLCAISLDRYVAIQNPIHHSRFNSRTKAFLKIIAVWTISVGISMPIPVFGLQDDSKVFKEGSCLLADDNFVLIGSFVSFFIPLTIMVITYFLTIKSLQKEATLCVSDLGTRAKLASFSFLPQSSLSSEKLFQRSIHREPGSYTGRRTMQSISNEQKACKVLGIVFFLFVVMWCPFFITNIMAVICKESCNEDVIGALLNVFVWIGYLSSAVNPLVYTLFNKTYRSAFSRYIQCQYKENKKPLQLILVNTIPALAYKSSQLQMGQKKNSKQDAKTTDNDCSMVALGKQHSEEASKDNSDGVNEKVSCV
hERG potassium channels, sequence (Q12809 whole entry): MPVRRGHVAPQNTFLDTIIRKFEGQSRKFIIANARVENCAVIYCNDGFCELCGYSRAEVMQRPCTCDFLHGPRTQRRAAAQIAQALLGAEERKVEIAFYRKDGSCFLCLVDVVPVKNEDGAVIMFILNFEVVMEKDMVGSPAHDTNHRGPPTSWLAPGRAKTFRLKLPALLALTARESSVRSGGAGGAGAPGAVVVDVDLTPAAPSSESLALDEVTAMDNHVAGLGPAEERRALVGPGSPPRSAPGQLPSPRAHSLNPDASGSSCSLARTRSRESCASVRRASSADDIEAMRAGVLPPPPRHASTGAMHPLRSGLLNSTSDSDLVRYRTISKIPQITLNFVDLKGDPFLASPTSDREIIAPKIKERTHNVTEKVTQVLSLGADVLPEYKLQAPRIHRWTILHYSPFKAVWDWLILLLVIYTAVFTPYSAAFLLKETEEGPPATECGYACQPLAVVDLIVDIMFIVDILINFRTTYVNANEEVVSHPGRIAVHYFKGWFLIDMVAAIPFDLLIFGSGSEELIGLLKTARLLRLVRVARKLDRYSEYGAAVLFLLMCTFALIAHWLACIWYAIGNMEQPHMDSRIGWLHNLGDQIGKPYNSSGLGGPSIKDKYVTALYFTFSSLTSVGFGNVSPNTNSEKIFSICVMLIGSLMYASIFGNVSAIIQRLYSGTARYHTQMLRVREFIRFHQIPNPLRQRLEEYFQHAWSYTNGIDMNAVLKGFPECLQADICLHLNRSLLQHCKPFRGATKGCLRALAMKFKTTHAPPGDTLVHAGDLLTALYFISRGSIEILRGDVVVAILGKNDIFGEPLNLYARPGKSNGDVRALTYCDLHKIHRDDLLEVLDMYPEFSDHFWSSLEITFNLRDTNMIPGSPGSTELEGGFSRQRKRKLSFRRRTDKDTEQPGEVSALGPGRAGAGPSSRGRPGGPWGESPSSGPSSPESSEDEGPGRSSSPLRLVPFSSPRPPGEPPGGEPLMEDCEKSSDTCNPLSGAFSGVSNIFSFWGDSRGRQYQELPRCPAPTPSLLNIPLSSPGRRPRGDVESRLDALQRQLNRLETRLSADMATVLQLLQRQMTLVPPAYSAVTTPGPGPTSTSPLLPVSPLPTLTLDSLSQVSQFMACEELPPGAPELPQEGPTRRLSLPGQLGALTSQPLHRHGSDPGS

SMILES | IC50 (hERG potassium channels; [3]) | IC50 (5-HT2A receptor [1]) | IC50 (5-HT2A receptor [2]) | IC50 (hERG potassium channels)
CN1CCC(N(Cc2ccc(F)cn2)C(=O)NCc2ccc3c(c2)CC(C)(C)O3)CC1 [Compound 24] | 3610 nM | 3.49 nM | 2.54 nM | –
CN1CCC(N(Cc2ccc(F)cn2)C(=O)NCc2ccc(OCCC(F)F)cc2)CC1 [Compound 92] | – | 4.64 nM | 6.54 nM | –
CC1(C)Cc2cc(CNC(=O)N(Cc3ccc(F)cn3)C3CCNCC3)ccc2O1 [Compound 23] | > 10000 nM | 6.02 nM | 5.64 nM | –
CC(C)CCc1ccc(CNC(=O)N(Cc2ccc(F)cn2)C2CCN(C)CC2)cc1 [Compound 52] | – | – | 42.7 nM | –
CC(C)OCc1ccc(CNC(=O)N(Cc2ccc(F)cc2)C2CCN(C)CC2)cc1 [Compound 21] | 910 nM | 2.1 nM | 34.1 nM | –
CN1CCC(N(Cc2ccc(F)cn2)C(=O)NCc2ccc(O)cc2)CC1 [Compound 3] | > 10000 nM | 11.6 nM | – | –
CC(C)C(O)Cc1ccc(CNC(=O)N(Cc2ccc(F)cc2)C2CCN(C)CC2)cc1 (stereo not drawn) [Compound 25] | 1030 nM | 6.73 nM | 16.9 nM | –
CN1CCC(N(Cc2ccc(F)cn2)C(=O)NCc2cc(Cl)c3c(c2)CC(C)(C)O3)CC1 [Compound 71] | 3320 nM | 9.52 nM | – | –
CN1CCC(N(Cc2ccc(F)cn2)C(=O)NCc2ccc(OCC(C)(C)F)cc2)CC1 [Compound 47] | 1390 nM | 3.13 nM | 9.22 nM | –
CN1CCC(N(Cc2ccc(F)cn2)C(=O)NCc2ccc3c(c2)CCC(C)(C)O3)CC1 [Compound 98] | 1460 nM | 21.2 nM | – | –
CN1CCC(N(Cc2ncc(F)cc2F)C(=O)NCc2ccc3c(c2)CC(C)(C)O3)CC1 [Compound 61] | 2550 nM | 3.32 nM | 31.2 nM | –
CN1CCC(N(Cc2ncc(F)cc2F)C(=O)NCc2ccc(OC(C)(C)C)cc2)CC1 [Compound 81] | 680 nM | 2.78 nM | 30.1 nM | –
CC(C)COc1ccc(CNC(=O)N(Cc2ccc(F)cn2)C2CCN(C)CC2)nc1 [Compound 96] | – | 11.4 nM | 26.4 nM | –
CCN1CCC(N(Cc2ccc(F)cn2)C(=O)NCc2ccc3c(c2)CC(C)(C)O3)CC1 [Compound 48] | 2400 nM | 3.14 nM | 22.5 nM | –
CC(C)COc1ccc(CNC(=O)N(Cc2ccc(F)cc2)C2CCN(C)CC2)cn1 [Compound 20] | 680 nM | 9.14 nM | – | –
CN1CCC(N(Cc2ccc(F)cc2)C(=O)NCc2ccc(OCCF)cc2)CC1 [Compound 56] | – | 5.77 nM | 9.9 nM | –
CN1CCC(N(Cc2ccc(F)cc2)C(=O)NCc2ccc(OCC(F)(F)F)cc2)CC1 [Compound 65] | 670 nM | 7.98 nM | 18.4 nM | –
CC(C)c1cc2cc(CNC(=O)N(Cc3ccc(F)cn3)C3CCN(C)CC3)ccc2o1 [Compound 50] | 550 nM | 20.9 nM | – | –
CN1CCC(N(Cc2ccc(F)cc2F)C(=O)NCc2ccc3c(c2)CC(C)(C)O3)CC1 [Compound 76] | – | 20.7 nM | – | –
CN1CCC(N(Cc2ccc(F)cc2F)C(=O)NCc2ccc(OCCF)cc2)CC1 [Compound 75] | – | 8.35 nM | 14.4 nM | –
CN1CCC(N(Cc2ccc(F)cn2)C(=O)NCc2ccc3c(c2)CCO3)CC1 [Compound 46] | 10400 nM | 4.15 nM | 11.1 nM | –
CN1CCC(N(Cc2ccc(F)cn2)C(=O)NCc2ccc(OCC(F)F)cc2)CC1 [Compound 78] | 1740 nM | 2.17 nM | 6.01 nM | –
CN1CCC(N(Cc2ccc(F)cc2)C(=O)NCc2ccc(OCC(F)F)cc2)CC1 [Compound 57] | – | 6.41 nM | 6.83 nM | –

SMILES | IC50 (hERG potassium channels; [3]) | IC50 (5-HT2A receptor [1]) | IC50 (5-HT2A receptor [2]) | IC50 (hERG potassium channels)
CN1CCC(N(Cc2ccc(F)cn2)C(=O)NCc2ccc(OCCCF)cc2)CC1 [Compound 17] | – | – | – | 1550 nM
CN1CCC(N(Cc2ccc(F)cc2)C(=O)NCc2ccc3c(c2)CC(C)(C)O3)CC1 [Compound 31] | 1850 nM | 17.4 nM | 30 nM | –
CN1CCC(N(Cc2ccc(F)cn2)C(=O)NCc2ccc(OCC(F)(F)F)c(F)c2)CC1 [Compound 26] | 530 nM | 6.86 nM | 9.79 nM | –
CN1CCC(N(Cc2ncc(F)cc2F)C(=O)NCc2ccc(OCCC(F)F)cc2)CC1 [Compound 93] | – | 4.26 nM | 10.6 nM | –
CN1CCC(N(Cc2ccc(F)cn2)C(=O)NCc2ccc(OC(CF)CF)cc2)CC1 [Compound 45] | 5500 nM | 2.42 nM | 7.04 nM | –
CN1CCC(N(Cc2ccc(F)cn2)C(=O)NCc2ccc(OCCC(F)(F)F)cc2)CC1 [Compound 55] | 690 nM | 4.7 nM | 2.23 nM | –
CN1CCC(N(Cc2ccc(F)cn2)C(=O)NCc2ccc(OC(C)(C)C)cc2)CC1 [Compound 18] | 850 nM | 5.75 nM | 1.12 nM | –
CN1CCC(N(Cc2ccc(F)cn2)C(=O)NCc2ccc(OC(F)(F)C(F)(F)F)cc2)CC1 [Compound 38] | – | – | 10 nM | –
CCOc1ccc(CNC(=O)N(Cc2ccc(F)cn2)C2CCN(C)CC2)cc1 [Compound 49] | 2430 nM | 4.1 nM | 7.3 nM | –
CC(C)COc1ccc(CNC(=O)N(Cc2ncc(F)cn2)C2CCN(C)CC2)cc1 [Compound 13] | 1300 nM | 1.92 nM | – | –
CC(C)OCc1ccc(CNC(=O)N(Cc2ccc(F)cn2)C2CCN(C)CC2)cc1 [Compound 37] | 3990 nM | 2.05 nM | 42.8 nM | –
CC(C)COc1ccc(CNC(=O)N(CCCN(C)C)Cc2ccc(F)cc2)cc1 [Compound 14] | – | 2.17 nM | – | –
CN1CCC(N(Cc2ccc(F)cn2)C(=O)NCc2ccc(OCCF)cc2)CC1 [Compound 60] | > 10000 nM | 2.11 nM | 16.4 nM | –
CC(C)COc1ccc(CNC(=O)N(Cc2ccc(F)cc2)C2CCN(C)CC2)nc1 [Compound 19] | 480 nM | 6.94 nM | 49.9 nM | –
CN1CCC(N(Cc2ccc(F)cn2)C(=O)NCc2ccc(OCCCC(F)F)cc2)CC1 [Compound 94] | – | 4.29 nM | 7.59 nM | –
CCN1CCC(N(Cc2ccc(F)cn2)C(=O)NCc2ccc(OCC(F)(F)F)cc2)CC1 [Compound 70] | 500 nM | 8.09 nM | 12.3 nM | –
CN1CCC(N(Cc2ccc(F)cn2)C(=O)NCc2ccc3c(c2)C=CC(C)(C)O3)CC1 [Compound 99] | 650 nM | 17.3 nM | 33.3 nM | –
CN1CCC(N(Cc2ncc(F)cc2F)C(=O)NCc2ccc(OCCCC(F)F)cc2)CC1 [Compound 95] | – | 5.13 nM | 27.9 nM | –
CN1CCC(N(Cc2ccc(F)cc2F)C(=O)NCc2ccc(OCC(F)F)cc2)CC1 [Compound 74] | – | 8.95 nM | – | –
CC(C)COc1ccc(CNC(=O)N(Cc2ccc(F)nn2)C2CCN(C)CC2)cc1 [Compound 91] | 580 nM | 14.7 nM | – | –
CC(C)COc1ccc(CNC(=O)N(Cc2ccc(F)cn2)C2CCN(CC3CCCCC3)CC2)cc1 [Compound 63] | – | – | 20.8 nM | –
CN1CCC(N(Cc2ccc(F)cn2)C(=O)NCc2cc(Br)c3c(c2)CC(C)(C)O3)CC1 [Compound 77] | – | 6.59 nM | 6.44 nM | –
